{
  "source": "patent US20230212129A1",
  "about": "“QUINAZOLINE DERIVATIVES USEFUL AS SELECTIVE HDAC6 INHIBITORS” (AnnJi Pharmaceutical Co., Ltd., priority 2020, published 2023)",
  "key": {"HDAC1": {"target": "T1, HDAC1 (Homo sapiens, UniProt Q13547)", "T1 construct": "GST (C); host or cells: baculovirus expression system, Sf9 insect cells (SP9 [sic])", "T1 sequence (Q13547 whole entry, the tested form may be a part)": "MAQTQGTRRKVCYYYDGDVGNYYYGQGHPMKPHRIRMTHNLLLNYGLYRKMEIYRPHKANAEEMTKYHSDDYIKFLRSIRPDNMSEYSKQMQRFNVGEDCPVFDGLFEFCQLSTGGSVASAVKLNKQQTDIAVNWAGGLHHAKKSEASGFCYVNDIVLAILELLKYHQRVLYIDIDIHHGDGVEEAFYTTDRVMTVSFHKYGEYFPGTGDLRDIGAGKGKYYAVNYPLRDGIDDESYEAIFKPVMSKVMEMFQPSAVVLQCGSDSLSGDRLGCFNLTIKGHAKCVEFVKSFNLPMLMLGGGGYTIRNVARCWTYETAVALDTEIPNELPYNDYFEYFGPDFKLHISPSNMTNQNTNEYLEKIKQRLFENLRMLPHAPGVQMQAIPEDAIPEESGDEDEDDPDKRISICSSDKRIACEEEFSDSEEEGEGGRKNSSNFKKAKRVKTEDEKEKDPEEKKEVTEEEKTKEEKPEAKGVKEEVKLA", "assay": "HDAC1 activity, acetylated-AMC-labeled peptide substrate", "format": "biochemical", "description": "The activities of HDAC 1 and 6 were measured by using an acetylated-AMC-labeled peptide substrate, a fluorogenic peptide from p53 residues 379-382 (RHIKKAc). The proteins involved in the assay are as the followings (1) Human HIDAC1 (Genflank Accession No. NM_004964): Full length with C-terminal GST tag, MW=79.9 kDa, expressed by baculovirus expression system in SP9 cells; and (2) Human HIDAC6 (Genflank Accession No. BC069243): Full length with N-terminal GST tag, MW=159 kDa, expressed by baculovirus expression system in Sf9 cells."}, "IL-6": {"tested_on": "IL-6", "assay": "IL-6 in bronchoalveolar lavage fluid, bleomycin model", "format": "in vivo, mice", "conditions": "prevention model, 30 mg/kg oral, 21 days; FIG. 6", "description": "(§1) The activities of compounds COMPOUND 2 and COMPOUND 33 in preventing and/or treating pulmonary fibrosis were examined using a bleomycin-induced pulmonary fibrosis model, a model that involves deactivated bleomycin hydrolase, elevated oxidative stress, and increased inflammatory cytokines. In the prevention model, mice were administered bleomycin intratracheally an hour in prior to the first oral administration of 30 mg/kg testing compounds. The treatment continued for 21 consecutive days, and mice were sacrificed to examine histological changes of lung tissues were analyzed by H&E staining to evaluate the degree of lung fibrosis."}, "Rat DRG cells": {"tested_on": "Rat DRG cells", "assay": "Cisplatin-induced neurite degeneration in DRG cells", "format": "cell-based", "conditions": "0.3 μM with 0.5 mM cisplatin, 48 hours; p<0.05; FIG. 3", "description": "Rat DRG cells were used to investigate the protective effect of HDAC6 inhibitors. DRG cells were treated with 0.5 mM of cisplatin with or without 0.3 μM of COMPOUND 2 or ACY1215 for 48 hours. The neurite area and the number of blebs (cell apoptosis) per image were calculated and their ratio values among the tested groups were compared and shown in FIG. 3."}, "[1]": {"tested_on": "cisplatin-induced neuropathy", "assay": "Cisplatin-induced neuropathy, von Frey paw-withdrawal murine model", "format": "in vivo, Balb/c mice", "conditions": "oral once daily Day 16 to 29 (pregabalin 15 mg/kg one hour prior to test); vs cisplatin control; FIG. 4", "description": "To understand whether COMPOUND 2 exerts neuron protective activities in cisplatin-induced neuropathy, a paw-withdrawal murine model is deployed. The 50% paw withdrawal threshold (PWT) to a static mechanical stimulus was assessed using von Frey filament and up-and-down method following the procedure described by Chaplan (1994). Mechanical allodynia, a painful sensation caused by innocuous stimuli like light touch, was assessed by the manual von Frey test once per week (on day 7, 14, 21, 28, […], and 42). The animals indicated sensation by pulling back its paw. The minimum force leading to withdrawal of the paw was regarded as the reflex threshold.\nBalb/c mice weighing about 25±2 gram were given cisplatin intraperitoneally at the dose of 1.5 mg/kg for 5 consecutive days (cumulative dose of 7.5 mg/kg), followed by 5 days of recovery. The cisplatin administration cycle was repeated once more to reach a cumulative dose of 15 mg/kg to induce neuropathy. Test compounds, COMPOUND 2 and ACY1215, were orally administered once daily for 2 weeks (except for the weekends) from Day 16 to 29. Pregabalin, a drug known to provide transient pain relief, was administered at a dose of 15 mg/kg prior to each von Frey stimulus test to serve as the positive control."}, "[2]": {"tested_on": "acetylated α-tubulin (Ac-α-tub)", "assay": "Western blot of acetylated α-tubulin in primary DRG cells", "format": "cell-based, C57BL/6J mice", "conditions": "48 hours of treatment, FIG. 2", "description": "To investigate the effect of HDAC6 inhibitors in neuron protection and neuron regeneration, the recovery of dorsal root ganglion (DRG) cells post-paclitaxel injury was tested. Dorsal root ganglion was extracted from 7 week-old female C57BL/6J mice and incubated with HDAC6 inhibitors (compounds COMPOUND 33, COMPOUND 34, or COMPOUND 2) at the concentrations of 0.1 μM and 1 μM, or 100 ng/ml of BDNF, a neuronal growth factor (positive control), for 24 hours prior to a 24-hour incubation of 0.1 μM paclitaxel."}, "[3]": {"tested_on": "BioMAP Fibrosis panel (REMyoF, SAEMyoF, MyoF systems)", "assay": "BioMAP Fibrosis panel cytokine/biomarker profiles", "format": "cell-based", "description": "The HDAC6 inhibitor compounds were tested in a commercially available platform, BioMAP, for the cytokine profiles in related to tissue injuries. The BioMAP Fibrosis panel included 3 systems stimulated to model TGFβ and TNFα driven myofibroblast differentiation during chronic inflammation and wound healing in different tissue settings. Fibrotic disease of the kidney associated with end-stage renal failure was captured in the REMyoF system consisting of a co-culture of renal proximal tubule epithelial cells and adult fibroblasts. Interstitial lung diseases, including pulmonary fibrotic diseases such as idiopathic pulmonary fibrosis (IPF), was modeled by co-culturing small airway epithelial cells and adult fibroblasts in the SAEMyoF system. Both co-culture systems modeled the paracrine interaction between myofibroblasts and the proximally located epithelial cells, while the impact on fibroblasts alone was interrogated using the monoculture MyoF system. A signature BioMAP profile that is reflective of the changes in protein biomarker readouts within an individual system was generated for each testing compounds. Biomarker readouts selected for therapeutic and biological relevance were predictive for disease outcomes or specific drug effects, and was validated using agents with known clinical efficacy. Each readout was measured quantitatively by immune-based methods that detect protein (e.g., ELISA)."}, "[4]": {"tested_on": "bleomycin-induced pulmonary fibrosis", "assay": "Bleomycin-induced pulmonary fibrosis model, lung histology (H&E)", "format": "in vivo, mice", "description": "as §1, with “fibrosis. Additionally, the HDAC6 inhibitors, COMPOUND 2 and COMPOUND 33, were tested for their effect in aiding animal recovery from lung injury and pulmonary fibrosis post injury.” for “fibrosis.”"}},
  "data": [
    {"smiles": "CCc1nc2cc(F)c(/C=C/C(=O)NO)cc2c(=O)n1-c1c(C)cccc1C", "note": "[Compound 2, (E)-3-(3-(2,6-dimethylphenyl)-2-ethyl-7-fluoro-4-oxo-3,4-dihydroquinazolin-6-yl)-N-hydroxyacrylamide]", "values": [
      {"measurement": "IC50", "setting": "HDAC1", "value": 5.17, "unit": "µM"},
      {"measurement": "IL-6 level in the BALF", "setting": "IL-6", "value": "suppressed IL-6 level in the BALF"},
      {"measurement": "neurite degeneration (neurite area and number of blebs ratio)", "setting": "Rat DRG cells", "value": "significantly lesser degree of neurite degeneration"},
      {"measurement": "mean withdrawal threshold (50% PWT)", "setting": "[1]", "value": "significantly increased the mean withdrawal threshold"},
      {"measurement": "tubulin hyperacetylation", "setting": "[2]", "value": "tubulin hyperacetylation"},
      {"measurement": "fibrosis-related matrix activities", "setting": "[3]; BioMAP readouts", "value": "decreased TIMP-1, MMP-1, Collagen I, Collagen III, MMP-9"},
      {"measurement": "inflammation-related activities", "setting": "[3]; BioMAP readouts", "value": "decreased M-CSF, VCAM-1, sIL-6, MCP-1; increased I-TAC"},
      {"measurement": "myofibroblast activation-related activities", "setting": "[3]; BioMAP readouts", "value": "decreased αSMA, N-Cadherin"},
      {"measurement": "tissue remodeling/wound healing activities", "setting": "[3]; BioMAP readouts", "value": "decreased EGFR, tPA, uPA, bFGF, sVEGF"},
      {"measurement": "activities on cytokines contributing to fibrosis", "setting": "[3]; compared with nintedanib", "value": "marked activities in decreasing TNF-α, IL-1, IL-6, MMP-9, VEGF, and collagen I"},
      {"measurement": "development of lung fibrosis", "setting": "[4]; prevention model, 30 mg/kg oral, 21 consecutive days, FIG. 5", "value": "markedly decreased the development of lung fibrosis"},
      {"measurement": "recovery from lung injury and pulmonary fibrosis post injury", "setting": "[4]; treatment post injury", "value": "protective effect in pulmonary inflammatory response and pulmonary fibrosis"}
    ]}
  ]
}
